47 molecules from paper PMC3894558, “Chemical signatures and new drug targets for gametocytocidal drug development” (Scientific Reports, 2014) can be followed below.

The structures appear in SMILES notation. Where two headings read alike, the source gives them in different places.

This assay concerns P. falciparum 3D7 gametocytes. Nature of the assay: alamarBlue gametocyte viability assay, strain 3D7. In kind it is cell-based, Plasmodium falciparum. The following applies: for Max Resp: DMSO set at 0%, 100 nM epoxomicin set at -100%.
Setting [1] is: Malaria Box, stages III-V 3D7 gametocytes.
Where [2] appears, read: Malaria Box, stages III-V 3D7 gametocytes, 11 concentrations, 1:3 dilution, read-out: IC50.
Setting [3] is: Malaria Box, stages III-V 3D7 gametocytes, 11 concentrations, 1:3 dilution.

In the case of `CCn1nc(-c2ccc(C(=O)OC)cc2)nc2c(=O)n(C)c(=O)nc1-2` [MMV306025], the “Max Resp” value (Malaria Box) is -98%. Further, under setting [1], the “Curve Class” value is reported as -1.1. The 50% inhibitory concentration (IC50) under setting [2] turned out to be 4.69 µM.
`CC(=O)c1sc(NC(=O)Nc2ccc(C)cc2C)nc1C` [MMV665894]: the “Max Resp” value (Malaria Box) is -23%. Also, the “Curve Class” value under setting [1] is listed as 4. In addition, the IC50 result under setting [3] was “Inactive”.
As to `Cc1cc(NC(=O)C2c3ccccc3C(=O)N(CC(C)C)C2c2cccs2)no1` (stereo not shown) [MMV006429], the “Max Resp” value (Malaria Box) is -82%. Under setting [1], the “Curve Class” value is -1.1. For the same molecule, under setting [2], the IC50 is 3.32 µM.
The like results for `OC(CNC1CCCCC1)Cn1c2ccccc2c2ccccc21` (stereo not shown) [MMV009063] were, in that order, -99%, -1.1 and 2.35 µM.
The matching figures for `COc1cccc(C2(C)Nc3ccccc3-c3nc4ccccc4n32)c1` (stereo not shown) [MMV396719]: -71%, -2.2 and 23.5 µM.
The like results for `C[n+]1c2ccccc2nc2ccc(NCCO)cc21` [MMV396693] were, in that order, -85%, -1.1 and 2.96 µM.
`COc1cc(C(=O)Nc2nc3c(cc4c5c(cccc53)CC4)s2)cc(OC)c1OC` [MMV396665]: for the setting “Malaria Box”, the “Max Resp” value was -24%. Also, the “Curve Class” value under setting [1] amounted to 4. In addition, the IC50 result under setting [3] was “Inactive”.
As to `O=C(Nc1ccccc1O)c1ccc(-c2ccc(Cl)cc2Cl)o1` [MMV665948], for the setting “Malaria Box”, the “Max Resp” value was -52%. Further, the “Curve Class” value under setting [1] was -1.4. For the same molecule, the IC50 under setting [2] worked out at 5.9 µM.
For `CCOc1ccc(-c2nc(NC(=O)c3cccc(S(C)(=O)=O)c3)sc2C)cc1` [MMV665913], the “Max Resp” value (Malaria Box) was -15%. The “Curve Class” value under setting [1] amounted to 4. The IC50 result under setting [3] is on record as “Inactive”.
The like results for `CCCCc1ccc(NS(=O)(=O)c2cc3c4c(c2)CCN4C(=O)CC3)cc1` [MMV001255] were, in that order, 2%, 4 and “Inactive”.
The matching figures for `Cc1c(C)n(Cc2ccc(F)cc2)c2ccc(C(=O)NCc3ccco3)cc12` [MMV008149]: 17%, 4 and “Inactive”.
Consider `COc1ccc(CCNC(=O)c2cc(S(=O)(=O)N3CC(C)CC(C)C3)ccc2Sc2ccc(F)cc2)cc1OC` (stereo not shown) [MMV007557], for which, for the setting “Malaria Box”, the “Max Resp” value is listed as -72%. The “Curve Class” value under setting [1] is on record as -2.2. Besides, the 50% inhibitory concentration (IC50) under setting [2] is 9.35 µM.
The like results for `Cc1ccnc(NC(c2cccc(OCc3ccccc3)c2)c2ccc3cccnc3c2O)c1` (stereo not shown) [MMV000720] were, in that order, -112%, -2.1 and 13.2 µM.
On to `CCOC(=O)c1c(NC(=O)c2ccccc2)sc2c(O)c(CN(CC)CC)ccc12` [MMV665831], for which, under “Malaria Box”, the “Max Resp” value was -58%. In addition, the “Curve Class” value under setting [1] was -2.2. Further, the concentration for half-maximal inhibition (IC50) under setting [2] amounted to 7.43 µM.
On to `COc1ccc(C(=O)C2CC2c2ccc(Cl)cc2)cc1` (stereo not shown) [MMV665924], for which the “Max Resp” value (Malaria Box) is reported as -23%. Besides, under setting [1], the “Curve Class” value amounted to 4. In addition, under setting [3], the IC50 result is “Inactive”.
For `CCCCNCC(O)(c1ccc(Cl)cc1)c1ccc(Cl)cc1` [MMV665929], the “Max Resp” value (Malaria Box) was -73%. The “Curve Class” value under setting [1] is reported as -1.2. Also, the IC50 under setting [2] was 2.96 µM.
`Br.CCN(CC)S(=O)(=O)c1ccc(-c2csc(Nc3ccc(C)c(C)c3)n2)cc1` [MMV009108]: the “Max Resp” value (Malaria Box) is recorded as -14%. Besides, under setting [1], the “Curve Class” value came to 4. Moreover, the IC50 entry under setting [3] was “Inactive”.
Turning to `COc1ccccc1NC1=C(N2CCCCC2)C(=O)c2ccccc2C1=O` [MMV085203], the “Max Resp” value (Malaria Box) is given as -97%. In addition, the “Curve Class” value under setting [1] is -2.1. Besides, the 50% inhibitory concentration (IC50) under setting [2] worked out at 7.43 µM.
For the molecule `Cc1cc(C)c2nc(N3CCC(C(=O)NCCCN4CCC(N5CCCCC5)CC4)CC3)sc2c1` [MMV019780], where the note is “Malaria Box”, the “Max Resp” value is listed as -106%. Further, the “Curve Class” value under setting [1] is reported as -1.1. Also, the concentration for half-maximal inhibition (IC50) under setting [2] worked out at 4.18 µM.
As for `Cc1ccc(Cn2c(N3CCC(C(=O)NCc4cccs4)CC3)nc3ccccc32)cc1` [MMV007564], the “Max Resp” value (Malaria Box) is -54%. Besides, the “Curve Class” value under setting [1] is -2.2. The IC50 entry under setting [3] was “Inactive”.
In the case of `COc1cc(CNCCc2ccc(Cl)cc2)cc(OC)c1O` [MMV128432], the “Max Resp” value (Malaria Box) is on record as -81%. Moreover, the “Curve Class” value under setting [1] is given as -2.1. Under setting [2], the half-maximal inhibitory concentration (IC50) came out at 11.8 µM.
In the case of `CCOc1cccc2sc(N(Cc3cccnc3)C(=O)C3CCCCC3)nc12` [MMV001230], under “Malaria Box”, the “Max Resp” value is listed as -26%. Further, the “Curve Class” value under setting [1] was 4. The IC50 result under setting [3] is “Inactive”.
The matching figures for `Nc1ccn([C@@H]2O[C@H](CO)[C@@H](O)[C@H]2O)c(=O)n1` [MMV638723]: -5%, 4 and “Inactive”.
`Cc1ccc(-c2cc3c(nn2)-c2ccccc2C3=O)cc1` [MMV666021]: the “Max Resp” value (Malaria Box) is on record as -4%. Moreover, the “Curve Class” value under setting [1] is recorded as 4. Besides, the half-inhibitory concentration (IC50) entry under setting [3] is reported as “Inactive”.
Regarding `OC(CNC1CCCC1)Cn1c2ccccc2c2ccccc21` (stereo not shown) [MMV000848], the “Max Resp” value (Malaria Box) was -93%. The “Curve Class” value under setting [1] is -1.1. In addition, the concentration for half-maximal inhibition (IC50) under setting [2] amounted to 2.09 µM.
The like results for `Nc1ccc(-c2nc3cc(Oc4ccc(Oc5ccc6[nH]c(-c7ccc(N)cc7)nc6c5)cc4)ccc3[nH]2)cc1` [MMV011895] were, in that order, -78%, -2.2 and 18.7 µM.
Regarding `CCCc1c(CC)c(=N)c2ccccc2n1C` [MMV008416], the “Max Resp” value (Malaria Box) is listed as -53%. Also, the “Curve Class” value under setting [1] is -2.2. For the same molecule, the concentration for half-maximal inhibition (IC50) under setting [2] worked out at 37.2 µM.
`c1ccc(-c2ccc(-c3nc4ccccc4[nH]3)cc2)cc1` [MMV665891]: the “Max Resp” value (Malaria Box) is 18%. Besides, the “Curve Class” value under setting [1] turned out to be 4. For the same molecule, the IC50 result under setting [3] is given as “Inactive”.
`COc1ccccc1CNC(=O)CCn1c(=O)[nH]c2ccsc2c1=O` [MMV019066]: where the note is “Malaria Box”, the “Max Resp” value is -11%. Also, the “Curve Class” value under setting [1] worked out at 4. Moreover, under setting [3], the concentration for half-maximal inhibition (IC50) result is recorded as “Inactive”.
Regarding `CC(C)(C)CC(C)(C)NCC(O)COc1ccc(Cl)cc1Cl` (stereo not shown) [MMV396794], the “Max Resp” value (Malaria Box) is -106%. For the same molecule, the “Curve Class” value under setting [1] is reported as -1.1. In addition, the IC50 under setting [2] stood at 2.96 µM.
The like results for `COc1ccc2nc(C)cc(Nc3cccc(O)c3)c2c1.Cl` [MMV008212] were, in that order, -64%, -2.2 and 29.6 µM.
Regarding `COc1ccc(C)c2sc(N(Cc3cccnc3)C(=O)c3ccc(C#N)cc3)nc12` [MMV001241], where the note is “Malaria Box”, the “Max Resp” value was -48%. Moreover, the “Curve Class” value under setting [1] is -2.2. Besides, under setting [3], the IC50 result is recorded as “Inactive”.
As to `COc1ccc2c(=O)cc(C(Cl)(Cl)Cl)oc2c1` [MMV665820], the “Max Resp” value (Malaria Box) is -101%. For the same molecule, the “Curve Class” value under setting [1] is reported as -1.1. Moreover, under setting [2], the half-maximal inhibitory concentration (IC50) is 3.72 µM.
The like results for `CC1CCN(Cc2ccc(NC(=O)c3cc4ccc5cccnc5c4[nH]3)cc2)CC1` [MMV020549] were, in that order, -75%, -2.2 and 14.8 µM.
The matching figures for `C=C(C)CCC(C)N1CCC(N2CCC(C(=O)NCCc3ccccc3)CC2)CC1` (stereo not shown) [MMV666110]: -73%, -2.2 and 29.6 µM.
On to `COc1ccc(C2NCCc3c2[nH]c2ccccc32)cc1CN1CCN(c2ccc(F)cc2)CC1.Cl` (stereo not shown) [MMV019690], for which the “Max Resp” value (Malaria Box) is recorded as -89%. In addition, under setting [1], the “Curve Class” value is -1.1. For the same molecule, the IC50 under setting [2] came to 6.62 µM.
Consider `CCC(=O)N1CCN(c2ccc(-n3c(=O)ccc4cnc5ccc(-c6ccc(N)nc6)cc5c43)cc2C(F)(F)F)CC1` [WWH030], for which, where the note is “Plasmodium falciparum, 3D7, 3D7 gametocytes, stages III-V, high throughput viability assay, read-out: IC50 against gametocytes”, the IC50 stood at 0.009 µM.
As for `CCOc1cc(Cl)c(C(C)NC(=O)c2ccccc2)cc1OCC` (stereo not shown) [MMV665800], the “Max Resp” value (Malaria Box) is listed as -48%. For the same molecule, under setting [1], the “Curve Class” value is given as -2.2. In addition, the IC50 entry under setting [3] was “Inactive”.
For the molecule `N=c1n(CCN2CCCCC2)c2ccccc2n1CC(=O)c1ccc(Cl)c(Cl)c1` [MMV396723], for the setting “Malaria Box”, the “Max Resp” value is reported as -92%. Under setting [1], the “Curve Class” value is on record as -2.1. In addition, under setting [2], the 50% inhibitory concentration (IC50) amounted to 14.8 µM.
As to `Cc1cccc(Nc2nc(N)c3ccccc3n2)c1.Cl` [MMV019110], the “Max Resp” value (Malaria Box) is reported as -65%. The “Curve Class” value under setting [1] is -2.2. Also, the IC50 under setting [2] worked out at 18.7 µM.
As for `CCOc1ccc(Nc2ccnc3cc(Cl)ccc23)cc1` [MMV007285], the “Max Resp” value (Malaria Box) is -38%. Moreover, the “Curve Class” value under setting [1] is -1.2. For the same molecule, the IC50 under setting [2] came to 5.26 µM.
Consider `CC1CN(C(=O)c2sc3ccccc3c2Cl)CC(C)O1` (stereo not shown) [MMV020492], for which the “Max Resp” value (Malaria Box) is given as -36%. Also, under setting [1], the “Curve Class” value is listed as -2.2. For the same molecule, the concentration for half-maximal inhibition (IC50) entry under setting [3] is on record as “Inactive”.
The matching figures for `CCC(=O)Nc1nnc(Cc2ccc(OC)c(OC)c2)s1` [MMV020942]: -19%, 4 and “Inactive”.
Regarding `O=C(Nc1ccc(F)c(Cl)c1)Nc1ccc(Cl)c(Cl)c1` [MMV665953], the “Max Resp” value (Malaria Box) is -94%. The “Curve Class” value under setting [1] is -2.1. Also, the IC50 under setting [2] was 18.7 µM.
The matching figures for `Cc1cc(N2CCCC2)nc(Nc2ccc(NC(=O)CCc3ccccc3)cc2)n1` [MMV396669]: -75%, -2.2 and 11.8 µM.
On to `Oc1ccc(-c2nc(-c3ccc4oc5ccc(-c6[nH]c(-c7ccc(O)cc7)nc6-c6ccccc6)cc5c4c3)c(-c3ccccc3)[nH]2)cc1` [MMV000753], for which the “Max Resp” value (Malaria Box) is recorded as -68%. Moreover, under setting [1], the “Curve Class” value is given as -2.2. In addition, the IC50 under setting [2] came to 18.7 µM.
The like results for `CN1C=C(c2ccc3ccccc3n2)C(c2c[nH]c3ccccc23)c2ccccc21` (stereo not shown) [MMV008160] were, in that order, -87%, -2.1 and 14.8 µM.

The term IC50 denotes the concentration that gives 50% inhibition.
